Where only a bound is given, the exact number is not on record here.

In this test the target is human topoisomerase IIα (Homo sapiens, UniProt P11388). The experiment in a line: DNA cleavage inhibition assay. The class given is biochemical.
Sequence of human topoisomerase IIα (P11388 whole entry): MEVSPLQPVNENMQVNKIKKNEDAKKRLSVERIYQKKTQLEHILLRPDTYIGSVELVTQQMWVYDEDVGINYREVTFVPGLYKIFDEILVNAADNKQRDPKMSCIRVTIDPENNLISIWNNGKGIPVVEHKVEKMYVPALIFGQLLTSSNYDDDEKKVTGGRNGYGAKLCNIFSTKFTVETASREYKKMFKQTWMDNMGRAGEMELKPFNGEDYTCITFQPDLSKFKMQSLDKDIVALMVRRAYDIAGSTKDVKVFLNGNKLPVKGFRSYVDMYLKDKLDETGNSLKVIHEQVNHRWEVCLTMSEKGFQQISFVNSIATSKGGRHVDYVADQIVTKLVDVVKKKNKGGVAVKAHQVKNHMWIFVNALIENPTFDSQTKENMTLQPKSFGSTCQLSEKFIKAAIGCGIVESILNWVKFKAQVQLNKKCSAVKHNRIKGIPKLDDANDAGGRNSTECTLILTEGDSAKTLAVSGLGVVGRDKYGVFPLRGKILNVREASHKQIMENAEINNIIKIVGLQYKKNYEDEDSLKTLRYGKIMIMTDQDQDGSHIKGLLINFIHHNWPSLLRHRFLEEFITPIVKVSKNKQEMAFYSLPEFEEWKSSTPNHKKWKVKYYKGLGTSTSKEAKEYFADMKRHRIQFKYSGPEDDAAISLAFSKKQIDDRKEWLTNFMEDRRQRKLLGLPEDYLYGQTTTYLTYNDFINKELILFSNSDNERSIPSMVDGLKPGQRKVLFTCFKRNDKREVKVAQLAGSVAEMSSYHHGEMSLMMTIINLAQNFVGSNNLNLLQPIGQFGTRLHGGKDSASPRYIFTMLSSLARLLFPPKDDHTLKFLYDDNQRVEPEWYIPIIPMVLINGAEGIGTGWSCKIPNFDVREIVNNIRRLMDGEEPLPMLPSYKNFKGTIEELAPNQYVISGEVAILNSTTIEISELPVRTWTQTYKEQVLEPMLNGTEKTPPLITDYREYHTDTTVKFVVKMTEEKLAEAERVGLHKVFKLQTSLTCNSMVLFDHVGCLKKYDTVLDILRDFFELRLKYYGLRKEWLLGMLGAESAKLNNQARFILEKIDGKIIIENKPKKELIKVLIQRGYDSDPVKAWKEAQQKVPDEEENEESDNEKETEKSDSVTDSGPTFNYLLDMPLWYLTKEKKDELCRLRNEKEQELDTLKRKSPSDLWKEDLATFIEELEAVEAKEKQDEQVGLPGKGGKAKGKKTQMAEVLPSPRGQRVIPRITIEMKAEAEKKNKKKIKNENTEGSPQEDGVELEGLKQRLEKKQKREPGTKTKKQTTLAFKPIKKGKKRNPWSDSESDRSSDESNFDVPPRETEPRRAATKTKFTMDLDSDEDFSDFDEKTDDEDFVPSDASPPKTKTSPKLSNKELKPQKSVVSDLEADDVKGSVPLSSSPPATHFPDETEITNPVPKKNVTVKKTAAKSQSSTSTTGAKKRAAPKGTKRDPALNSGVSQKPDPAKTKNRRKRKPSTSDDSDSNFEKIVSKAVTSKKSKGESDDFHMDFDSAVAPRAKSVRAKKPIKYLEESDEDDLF

Turning to `Cc1c2ccncc2c(C)c2c1[nH]c1ccccc12` [ET, 5,11-dimethyl-6H-pyrido[4,3-b]carbazole], the IC50 was above 200 µM.

For orientation: IC50 means the point on the concentration scale where inhibition reaches its midpoint. Higher therefore signals a need for much substance.

The values above are taken from paper PMC4785065 (Bioorganic & medicinal chemistry letters, 2016).
